# Experimental data: ChEMBL document CHEMBL1201861, “Genomics of Drug Sensitity in Cancer screening data, Wellcome Trust Sanger Institute”
# Tests used:
# Experiment in all cases: cells
# [1] = tested on: Lu-65; assay type: functional, cell-based, Homo sapiens; settings: Homo sapiens, Lu-65;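 also: growth inhibition of Lu-65 cancer cells, read out by a cell viability assay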
# Description: SANGER: Inhibition of human LU-65 cell growth in a cell viability assay.
# [2] = tested on: ES8; assay type: functional, cell-based, Homo sapiens; settings: Homo sapiens, ES8;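 also: growth inhibition of human ES8 cells, read out with a cell viability assay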
# Description: SANGER: Inhibition of human ES8 cell growth in a cell viability assay.
# [3] = tested on: ETK-1; assay type: functional, cell-based, Homo sapiens; settings: Homo sapiens, ETK-1;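 also: growth inhibition of human ETK-1 cells, read out with a cell viability assay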
# Description: SANGER: Inhibition of human ETK-1 cell growth in a cell viability assay.
# [4] = tested on: HCC2157; assay type: functional, cell-based, Homo sapiens; settings: Homo sapiens, HCC2157;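 also: growth inhibition of the cancer cell line, read out as cell viability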
# Description: SANGER: Inhibition of human HCC2157 cell growth in a cell viability assay.
# [5] = tested on: NCI-H226; assay type: functional, cell-based, Homo sapiens; settings: Homo sapiens, NCI-H226;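 also: cell viability read-out used to gauge growth inhibition of the cells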
# Description: SANGER: Inhibition of human NCI-H226 cell growth in a cell viability assay.
# [6] = tested on: SF-126; assay type: functional, cell-based, Homo sapiens; settings: Homo sapiens, SF-126;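 also: growth inhibition of human SF126 cells, read out with a cell viability assay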
# Description: SANGER: Inhibition of human SF126 cell growth in a cell viability assay.
# [7] = tested on: NB10; assay type: functional, cell-based, Homo sapiens; settings: Homo sapiens, NB10;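 also: growth inhibition of NB10 cells, read out by a cell viability assay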
# Description: SANGER: Inhibition of human NB10 cell growth in a cell viability assay.
# [8] = tested on: KP-N-YS; assay type: functional, cell-based, Homo sapiens; settings: Homo sapiens, KP-N-YS;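 also: cell viability assay measuring inhibition of cell line growth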
# Description: SANGER: Inhibition of human KP-N-YS cell growth in a cell viability assay.
# [9] = tested on: SHP77; assay type: functional, cell-based, Homo sapiens, SHP-77; settings: Homo sapiens, SHP77;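 also: growth inhibition of human SHP-77 cells measured by a cell viability assay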
# Description: SANGER: Inhibition of human SHP-77 cell growth in a cell viability assay.
# [10] = tested on: NCI-H2126; assay type: functional, cell-based, Homo sapiens; settings: Homo sapiens, NCI-H2126;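 also: growth inhibition of the cancer cell line, determined with a cell viability readout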
# Description: SANGER: Inhibition of human NCI-H2126 cell growth in a cell viability assay.
# [11] = tested on: SK-MEL-1; assay type: functional, cell-based, Homo sapiens; settings: Homo sapiens, SK-MEL-1;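 also: growth inhibition of human SK-MEL-1 cells, read out by a cell viability assay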
# Description: SANGER: Inhibition of human SK-MEL-1 cell growth in a cell viability assay.
# [12] = tested on: GOTO; assay type: functional, cell-based, Homo sapiens; settings: Homo sapiens, GOTO;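 also: growth inhibition of GOTO cells, read out by a cell viability assay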
# Description: SANGER: Inhibition of human GOTO cell growth in a cell viability assay.
# [13] = tested on: COLO-800; assay type: functional, cell-based, Homo sapiens; settings: Homo sapiens, COLO-800;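 also: growth inhibition of COLO-800 cells, read out with a cell viability assay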
# Description: SANGER: Inhibition of human COLO-800 cell growth in a cell viability assay.
# [14] = tested on: AM-38; assay type: functional, cell-based, Homo sapiens; settings: Homo sapiens, AM-38;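 also: growth inhibition of AM-38 cells of human origin, read out by a cell viability assay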
# Description: SANGER: Inhibition of human AM-38 cell growth in a cell viability assay.
# [15] = tested on: ATN-1; assay type: functional, cell-based, Homo sapiens; settings: Homo sapiens, ATN-1;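 also: growth inhibition of human ATN-1 cells, read out with a cell viability assay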
# Description: SANGER: Inhibition of human ATN-1 cell growth in a cell viability assay.
# [16] = tested on: SCH; assay type: functional, cell-based, Homo sapiens; settings: Homo sapiens, SCH;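 also: growth inhibition of human SCH cells, read out in a cell viability assay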
# Description: SANGER: Inhibition of human SCH cell growth in a cell viability assay.
# [17] = tested on: LB1047-RCC; assay type: functional, cell-based, Homo sapiens; settings: Homo sapiens, LB1047-RCC;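 also: inhibition of cell growth, determined with a cell viability assay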
# Description: SANGER: Inhibition of human LB1047-RCC cell growth in a cell viability assay.
# [18] = tested on: LU-139; assay type: functional, cell-based, Homo sapiens; settings: Homo sapiens, LU-139
# Description: SANGER: Inhibition of human LU-139 cell growth in a cell viability assay.
# [19] = tested on: BV-173; assay type: functional, cell-based, Homo sapiens; settings: Homo sapiens, BV-173
# Description: SANGER: Inhibition of human BV-173 cell growth in a cell viability assay.
# [20] = tested on: A4-Fuk; assay type: functional, cell-based, Homo sapiens; settings: Homo sapiens, A4-Fuk;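 also: growth inhibition of A4-Fuk cells, read out by a cell viability assay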
# Description: SANGER: Inhibition of human A4-Fuk cell growth in a cell viability assay.
# [21] = tested on: EW-1; assay type: functional, cell-based, Homo sapiens; settings: Homo sapiens, EW-1;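 also: growth inhibition of the human EW-1 cell line, read out by a cell viability assay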
# Description: SANGER: Inhibition of human EW-1 cell growth in a cell viability assay.
# [22] = tested on: HEL; assay type: functional, cell-based, Homo sapiens; settings: Homo sapiens, HEL;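 also: growth inhibition of HEL cells, read out with a cell viability assay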
# Description: SANGER: Inhibition of human HEL cell growth in a cell viability assay.
# [23] = tested on: HCE-T; assay type: functional, cell-based, Homo sapiens; settings: Homo sapiens, HCE-T;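 also: cell viability assay read-out, reporting inhibition of HCE-T cell growth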
# Description: SANGER: Inhibition of human HCE-T cell growth in a cell viability assay.
# [24] = tested on: GI-1; assay type: functional, cell-based, Homo sapiens; settings: Homo sapiens, GI-1;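 also: growth inhibition of human GI-1 cells, measured with a cell viability readout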
# Description: SANGER: Inhibition of human GI-1 cell growth in a cell viability assay.
# [25] = tested on: NCI-H1650; assay type: functional, cell-based, Homo sapiens; settings: Homo sapiens, NCI-H1650;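 also: growth inhibition of human NCI-H1650 cells measured by a cell viability assay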
# Description: SANGER: Inhibition of human NCI-H1650 cell growth in a cell viability assay.
# [26] = tested on: SK-LMS-1; assay type: functional, cell-based, Homo sapiens; settings: Homo sapiens, SK-LMS-1;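 also: growth inhibition of human SK-LMS-1 cells, read out with a cell viability assay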
# Description: SANGER: Inhibition of human SK-LMS-1 cell growth in a cell viability assay.
# [27] = tested on: D-502MG; assay type: functional, cell-based, Homo sapiens; settings: Homo sapiens, D-502MG
# Description: SANGER: Inhibition of human D-502MG cell growth in a cell viability assay.
# [28] = tested on: RCC10RGB; assay type: functional, cell-based, Homo sapiens; settings: Homo sapiens, RCC10RGB;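 also: growth inhibition of human RCC10RGB cells, read out by a cell viability assay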
# Description: SANGER: Inhibition of human RCC10RGB cell growth in a cell viability assay.
# [29] = tested on: NCI-H209; assay type: functional, cell-based, Homo sapiens; settings: Homo sapiens, NCI-H209;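 also: growth inhibition of human NCI-H209 cells, measured by a cell viability assay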
# Description: SANGER: Inhibition of human NCI-H209 cell growth in a cell viability assay.
# [30] = tested on: CTV-1; assay type: functional, cell-based, Homo sapiens; settings: Homo sapiens, CTV-1;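 also: growth inhibition of the cell line, read out with a cell viability assay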
# Description: SANGER: Inhibition of human CTV-1 cell growth in a cell viability assay.
# [31] = tested on: MZ1-PC; assay type: functional, cell-based, Homo sapiens; settings: Homo sapiens, MZ1-PC;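 also: cell viability assay measuring growth inhibition of human MZ1-PC cells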
# Description: SANGER: Inhibition of human MZ1-PC cell growth in a cell viability assay.
# [32] = tested on: NEC8; assay type: functional, cell-based, Homo sapiens; settings: Homo sapiens, NEC8;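 also: growth inhibition of human NEC8 cells, read out by a cell viability assay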
# Description: SANGER: Inhibition of human NEC8 cell growth in a cell viability assay.
# [33] = tested on: EW-3; assay type: functional, cell-based, Homo sapiens; settings: Homo sapiens, EW-3;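 also: cell viability assay read-out, IC50 reflects inhibition of growth of the EW-3 cells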
# Description: SANGER: Inhibition of human EW-3 cell growth in a cell viability assay.
# [34] = tested on: NB69; assay type: functional, cell-based, Homo sapiens; settings: Homo sapiens, NB69;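 also: growth inhibition of NB69 cells, determined by a cell viability assay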
# Description: SANGER: Inhibition of human NB69 cell growth in a cell viability assay.
# [35] = tested on: BE-13; assay type: functional, cell-based, Homo sapiens; settings: Homo sapiens, BE-13;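 also: growth inhibition of human BE-13 cells, measured with a cell viability assay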
# Description: SANGER: Inhibition of human BE-13 cell growth in a cell viability assay.
# [36] = tested on: NB13; assay type: functional, cell-based, Homo sapiens; settings: Homo sapiens, NB13;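 also: cell viability readout measuring growth inhibition of human NB13 cells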
# Description: SANGER: Inhibition of human NB13 cell growth in a cell viability assay.
# [37] = tested on: L-428; assay type: functional, cell-based, Homo sapiens; settings: Homo sapiens, L-428
# Description: SANGER: Inhibition of human L-428 cell growth in a cell viability assay.
# [38] = tested on: Calu-6; assay type: functional, cell-based, Homo sapiens; settings: Homo sapiens, Calu-6;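 also: growth of human Calu-6 cells, read out by a cell viability assay, IC50 marking inhibition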
# Description: SANGER: Inhibition of human Calu-6 cell growth in a cell viability assay.
# [39] = tested on: NCI-H1770; assay type: functional, cell-based, Homo sapiens; settings: Homo sapiens, NCI-H1770;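 also: growth inhibition of NCI-H1770 cells determined with a viability readout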
# Description: SANGER: Inhibition of human NCI-H1770 cell growth in a cell viability assay.
# [40] = tested on: Becker; assay type: functional, cell-based, Homo sapiens; settings: Homo sapiens, Becker;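 also: growth inhibition of Becker cells, read out with a cell viability assay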
# Description: SANGER: Inhibition of human Becker cell growth in a cell viability assay.
# [41] = tested on: TE-12; assay type: functional, cell-based, Homo sapiens; settings: Homo sapiens, TE-12;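 also: growth inhibition of TE-12 cells, read out by a cell viability assay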
# Description: SANGER: Inhibition of human TE-12 cell growth in a cell viability assay.
# [42] = tested on: NCI-H446; assay type: functional, cell-based, Homo sapiens; settings: Homo sapiens, NCI-H446;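 also: growth inhibition of NCI-H446 cells determined by a cell viability assay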
# Description: SANGER: Inhibition of human NCI-H446 cell growth in a cell viability assay.
# [43] = tested on: ML-2; assay type: functional, cell-based, Homo sapiens; settings: Homo sapiens, ML-2;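 also: growth inhibition of ML-2 cells, measured with a cell viability readout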
# Description: SANGER: Inhibition of human ML-2 cell growth in a cell viability assay.
# [44] = tested on: ES6; assay type: functional, cell-based, Homo sapiens; settings: Homo sapiens, ES6;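 also: growth inhibition of human ES6 cells, read out with a cell viability assay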
# Description: SANGER: Inhibition of human ES6 cell growth in a cell viability assay.
# [45] = tested on: GT3TKB; assay type: functional, cell-based, Homo sapiens; settings: Homo sapiens, GT3TKB;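 also: growth inhibition of the cell line, read out with a cell viability assay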
# Description: SANGER: Inhibition of human GT3TKB cell growth in a cell viability assay.
# [46] = tested on: GCIY; assay type: functional, cell-based, Homo sapiens; settings: Homo sapiens, GCIY;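 also: growth inhibition of the human GCIY cell line, read out by a cell viability assay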
# Description: SANGER: Inhibition of human GCIY cell growth in a cell viability assay.
# [47] = tested on: KLE; assay type: functional, cell-based, Homo sapiens; settings: Homo sapiens, KLE;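 also: growth inhibition of human KLE cells, read out with a cell viability assay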
# Description: SANGER: Inhibition of human KLE cell growth in a cell viability assay.
# [48] = tested on: HCE-4; assay type: functional, cell-based, Homo sapiens; settings: Homo sapiens, HCE-4;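 also: cell viability assay measuring inhibition of growth in the human HCE-4 cell line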
# Description: SANGER: Inhibition of human HCE-4 cell growth in a cell viability assay.
compound,measurement,setting,value
CC[C@H](CO)Nc1nc(NCc2ccccc2)c2ncn(C(C)C)c2n1 [SELICICLIB],IC50,[1],> 16000 nM
same,IC50,[2],> 16000 nM
same,IC50,[3],> 16000 nM
same,IC50,[4],> 16000 nM
same,IC50,[5],> 16000 nM
same,IC50,[6],> 16000 nM
same,IC50,[7],> 16000 nM
same,IC50,[8],> 16000 nM
same,IC50,[9],> 16000 nM
same,IC50,[10],> 16000 nM
same,IC50,[11],> 16000 nM
same,IC50,[12],> 16000 nM
same,IC50,[13],> 16000 nM
same,IC50,[14],> 16000 nM
same,IC50,[15],> 16000 nM
same,IC50,[16],> 16000 nM
same,IC50,[17],> 16000 nM
same,IC50,[18],> 16000 nM
same,IC50,[19],> 16000 nM
same,IC50,[20],> 16000 nM
same,IC50,[21],> 16000 nM
same,IC50,[22],> 16000 nM
same,IC50,[23],> 16000 nM
same,IC50,[24],> 16000 nM
same,IC50,[25],> 16000 nM
same,IC50,[26],> 16000 nM
same,IC50,[27],> 16000 nM
same,IC50,[28],> 16000 nM
same,IC50,[29],> 16000 nM
same,IC50,[30],> 16000 nM
same,IC50,[31],> 16000 nM
same,IC50,[32],> 16000 nM
same,IC50,[33],> 16000 nM
same,IC50,[34],> 16000 nM
same,IC50,[35],> 16000 nM
same,IC50,[36],> 16000 nM
same,IC50,[37],> 16000 nM
same,IC50,[38],> 16000 nM
same,IC50,[39],> 16000 nM
same,IC50,[40],9460 nM
same,IC50,[41],> 16000 nM
same,IC50,[42],> 16000 nM
same,IC50,[43],> 16000 nM
same,IC50,[44],> 16000 nM
same,IC50,[45],> 16000 nM
same,IC50,[46],12900 nM
CC(=O)O[C@H]1C(=O)[C@@]2(C)[C@H]([C@H](OC(=O)c3ccccc3)[C@]3(O)C[C@H](OC(=O)[C@H](O)[C@@H](NC(=O)c4ccccc4)c4ccccc4)C(C)=C1C3(C)C)[C@]1(OC(C)=O)CO[C@@H]1C[C@@H]2O [PACLITAXEL],IC50,[1],> 102 nM
same,IC50,[2],5.38 nM
same,IC50,[3],1.52 nM
same,IC50,[4],> 102 nM
same,IC50,[5],> 102 nM
same,IC50,[6],61.3 nM
same,IC50,[7],> 102 nM
same,IC50,[8],> 102 nM
same,IC50,[9],> 102 nM
same,IC50,[10],27.7 nM
same,IC50,[11],> 102 nM
same,IC50,[12],> 102 nM
same,IC50,[47],> 102 nM
same,IC50,[13],> 102 nM
same,IC50,[14],> 102 nM
same,IC50,[15],6.09 nM
same,IC50,[16],> 102 nM
same,IC50,[17],25.1 nM
same,IC50,[18],59.9 nM
same,IC50,[19],25.5 nM
same,IC50,[20],6.11 nM
same,IC50,[21],3.71 nM
same,IC50,[22],41.4 nM
same,IC50,[23],20.9 nM
same,IC50,[24],13.7 nM
same,IC50,[25],> 102 nM
same,IC50,[26],4.01 nM
same,IC50,[27],> 102 nM
same,IC50,[28],> 102 nM
same,IC50,[29],97.9 nM
same,IC50,[30],14.8 nM
same,IC50,[31],0.729 nM
same,IC50,[32],52.9 nM
same,IC50,[33],> 102 nM
same,IC50,[34],> 102 nM
same,IC50,[35],6.36 nM
same,IC50,[36],4.91 nM
same,IC50,[37],> 102 nM
same,IC50,[38],10.1 nM
same,IC50,[39],> 102 nM
same,IC50,[40],7.2 nM
same,IC50,[48],7.67 nM
same,IC50,[41],33.1 nM
same,IC50,[42],21.1 nM
same,IC50,[43],20.5 nM
same,IC50,[44],95.9 nM
same,IC50,[45],4.34 nM
same,IC50,[46],> 102 nM
